Measured values as given in article PMC12775434, “Ultra-large virtual screening unveils potent agonists of the neuromodulatory orphan receptor GPR139” (Nature Communications, 2025).
“And” between values parts separate entries of the source, which are not always exact repeats. Equal values may be shown once.

Assays:
[1] = biological target: T1, GPR139 (Homo sapiens, UniProt Q6DWJ6); assay: Inositol monophosphate (IP1) accumulation assay, GPR139-CHOk1; type: cell-based; details: for EC50 / Emax: Supplementary Table 2; for EC50: mean ± SEM, read-out: pEC50 IP1 (converted); for Emax: normalized to Lundbeck Cmp 1a, read-out: Emax (%) IP1
T1 sequence (Q6DWJ6 1-353): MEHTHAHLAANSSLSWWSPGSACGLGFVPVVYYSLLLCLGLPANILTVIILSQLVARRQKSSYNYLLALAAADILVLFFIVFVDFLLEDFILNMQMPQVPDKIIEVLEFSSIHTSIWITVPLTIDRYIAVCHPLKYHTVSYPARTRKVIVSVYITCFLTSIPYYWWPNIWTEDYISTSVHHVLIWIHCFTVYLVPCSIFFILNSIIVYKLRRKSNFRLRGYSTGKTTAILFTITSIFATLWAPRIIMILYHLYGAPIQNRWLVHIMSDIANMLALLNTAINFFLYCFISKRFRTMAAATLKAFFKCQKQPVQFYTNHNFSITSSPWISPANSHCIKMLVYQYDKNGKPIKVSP
Experimental: Primary screening and pharmacological characterization of compounds were performed using a CHO-K1 cell line that stably expresses human GPR139 (GPR139-CHOk1). The GPR139-CHOk1 cell line was kindly provided by H. Lundbeck A/S, Denmark[24]. GPR139-CHOk1 cells were grown in Ham’s F-12 Kaighn’s Modification Medium (ThermoFisher #21127030) supplemented with 10% dialyzed fetal bovine serum (US origin, ThermoFisher #26400044), 100 units/mL Penicillin-Streptomycin (ThermoFisher #15140122), and 1 mg/mL Geneticin (ThermoFisher #11811031). […] M1R-CHOk1 cells were purchased from The Missouri S&T cDNA Resource Center (#CEM100TN00). M1R-CHOk1 cells were grown in Ham’s F12 Medium (ThermoFisher #21765029) supplemented with 10% fetal bovine serum (Brazilian origin, ThermoFisher #10270106), 100 units/mL Penicillin-Streptomycin, and 0.25 mg/mL Geneticin. HEK293A cells transiently transfected with GPR139 were used for additional pharmacological assessment of signaling pathways activated by GPR139. HEK239A cells were generously provided by Dr. Asuka Inoue, Tohoku University, Japan. HEK293A cells were grown in Dulbecco’s Modified Eagle Medium (ThermoFisher #31966047) supplemented with 10% dialyzed fetal bovine serum and 100 units/mL Penicillin-Streptomycin. Cell lines were maintained at 37 °C in humidified incubator equilibrated with 5% CO2.
HTRF IP-One Gq kit (Cisbio #62IPAPEC) was used to detect the accumulation of inositol monophosphate (IP1) as described in the work by Shehata et al.[26]. GPR139-CHOk1 cells were dissociated and resuspended in HEPES buffer. 50,000 cells in 5 µL and 5 µL test compounds diluted from DMSO stocks (final DMSO concentration of maximally 0.3%) in HEPES buffer supplemented with 40 mM LiCl were mixed in each well of white 384-well OptiPlate (PerkinElmer #6007290). The cells were incubated for 1 h at 37 °C. Then, 10 µL detection reagent composed of 2.5% Eu3 + -anti-IP1 antibody and 2.5% IP1-d2 diluted in lysis buffer was added, and the cells were incubated for 1 h at room temperature before measurements. Measurements were performed on EnVision Multimode Plate Reader (PerkinElmer) using excitation light of 340 nm and emission light of 615 nm and 665 nm. The time resolved-fluorescence resonance energy transfer (TR-FRET) 665 nm/615 nm ratio, which is inversely proportional to the IP1 accumulation, was used to determine the IP1 response.
Pharmacological data and statistical analyses were performed in GraphPad Prism v9–10 (Graphpad Software Inc., San Diego, CA), which are also specifically described in the figure and table legends. The functional assay responses were normalized to buffer (0%) and Lundbeck Cmp 1a or JNJ-63533054 (100%), for Ca^2+ and IP1 experiments in the GPR139-CHOk1 stable cell line or Ca^2+, G protein activation, and arrestin-3 recruitment experiments in the HEK293A cells transiently transfected with GPR139, respectively. Data are from at least three independent experiments, unless stated otherwise. Concentration-response curves were fitted applying non-linear regression using the log (agonist) versus response model with variable slope. ANOVA was applied for comparing results and determining statistical significance. Comparison of responses to the reference was performed using one-way ANOVA with Dunnett’s multiple comparisons test at significance threshold of p < 0.05. Comparison of responses across assays and ligands was performed using two-way ANOVA with Tukey’s multiple comparisons test at a significance threshold of p < 0.05.

[2] = biological target: T1, GPR139; assay: Ca2+ mobilization assay, antagonist mode (EC80 800 nM Lundbeck Cmp 1a after 20 min preincubation), GPR139-CHOk1; type: cell-based
Procedure, shortened: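 Fluo-4-loaded GPR139-CHOk1 cells in HEPES-buffered HBSS (pH 7.4, 2.5 mM probenecid) given test compounds at 10 µM, then after 20 min challenged with 800 nM Lundbeck Cmp 1a (EC80). Calcium fluorescence read at 37 °C, 485/525 nm.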

[3] = log [compound] M -4.5, individual replicates
[4] = log [compound] M -5.0, individual replicates
[5] = log [compound] M -5.5, individual replicates
[6] = log [compound] M -6.0, individual replicates
[7] = log [compound] M -6.5, individual replicates
[8] = log [compound] M -7.0, individual replicates
[9] = log [compound] M -7.5, individual replicates
[10] = log [compound] M -8.0, individual replicates
[11] = individual replicates (Supplementary Figure 4)

| SMILES | EC50 [1] | Emax [1] | IP1 response (% of Cmp 1a) [1, 3] | IP1 response (% of Cmp 1a) [1, 4] | IP1 response (% of Cmp 1a) [1, 5] | IP1 response (% of Cmp 1a) [1, 6] | IP1 response (% of Cmp 1a) [1, 7] | IP1 response (% of Cmp 1a) [1, 8] | IP1 response (% of Cmp 1a) [1, 9] | IP1 response (% of Cmp 1a) [1, 10] | Ca2+ signal (% of Cmp 1a) [2, 11] | IP1 response (% of Cmp 1a) ([1]; log [Compound] M -4.5, replicate experiments) | IP1 response (% of Cmp 1a) ([1]; log [Compound] M -5.0, replicate experiments) | IP1 response (% of Cmp 1a) ([1]; log [Compound] M -5.5, replicate experiments) | IP1 response (% of Cmp 1a) ([1]; log [Compound] M -6.0, replicate experiments) | IP1 response (% of Cmp 1a) ([1]; log [Compound] M -6.5, replicate experiments) | IP1 response (% of Cmp 1a) ([1]; log [Compound] M -7.0, replicate experiments) | IP1 response (% of Cmp 1a) ([1]; log [Compound] M -7.5, replicate experiments) | IP1 response (% of Cmp 1a) ([1]; log [Compound] M -8.0, replicate experiments) | Ca2+ signal (% of Cmp 1a) ([2]; individual replicates (Supplementary Figure 1)) |
| --- | --- | --- | --- | --- | --- | --- | --- | --- | --- | --- | --- | --- | --- | --- | --- | --- | --- | --- | --- | --- |
| COc1cc(-c2nc(CC(=O)NC(C)c3ccccc3)no2)ccn1 (stereo not drawn) [Compound 1.7, COC1=NC=CC(C2=NC(CC(NC(C3=CC=CC=C3)C)=O)=NO2)=C1] | 1580 nM | 117 ± 14% | 142 % of Cmp 1a and 109 % of Cmp 1a and 76 % of Cmp 1a and 127 % of Cmp 1a | 138 % of Cmp 1a and 94 % of Cmp 1a and 74 % of Cmp 1a and 127 % of Cmp 1a | 84 % of Cmp 1a and 64 % of Cmp 1a and 60 % of Cmp 1a and 90 % of Cmp 1a | 57 % of Cmp 1a and 49 % of Cmp 1a and 36 % of Cmp 1a and 61 % of Cmp 1a | 27 % of Cmp 1a and 9 % of Cmp 1a and 14 % of Cmp 1a and 24 % of Cmp 1a | 16 % of Cmp 1a and 1.76 % of Cmp 1a and 0.565 % of Cmp 1a and 7 % of Cmp 1a | 8 % of Cmp 1a and -3 % of Cmp 1a and 0.446 % of Cmp 1a and 6 % of Cmp 1a | 7 % of Cmp 1a and -5.45 % of Cmp 1a and -4.55 % of Cmp 1a and 1 % of Cmp 1a | -1.33 % of Cmp 1a and 38 % of Cmp 1a and -9 % of Cmp 1a |  |  |  |  |  |  |  |  |  |
| Cc1cc(-c2nc(CC(=O)NC(C)c3ccccc3)no2)n(C)n1 (stereo not drawn) [Compound 1.16, CC(C1=CC=CC=C1)NC(CC2=NOC(C3=CC(C)=NN3C)=N2)=O] | 2510 nM | 118 ± 5% | 95 % of Cmp 1a and 98 % of Cmp 1a and 122 % of Cmp 1a and 128 % of Cmp 1a | 115 % of Cmp 1a and 88 % of Cmp 1a and 90 % of Cmp 1a and 87 % of Cmp 1a | 53 % of Cmp 1a and 54 % of Cmp 1a and 79 % of Cmp 1a and 67 % of Cmp 1a | 44 % of Cmp 1a and 38 % of Cmp 1a (2×) and 47 % of Cmp 1a | 8 % of Cmp 1a and 17 % of Cmp 1a and 10 % of Cmp 1a and 15 % of Cmp 1a | -3.74 % of Cmp 1a and -1.83 % of Cmp 1a and 5.46 % of Cmp 1a and 8 % of Cmp 1a | -0.538 % of Cmp 1a and 1 % of Cmp 1a and -0.216 % of Cmp 1a and 6 % of Cmp 1a | -11 % of Cmp 1a and -1 % of Cmp 1a and 0.939 % of Cmp 1a and 0.124 % of Cmp 1a | 5 % of Cmp 1a and 13 % of Cmp 1a and -4.67 % of Cmp 1a |  |  |  |  |  |  |  |  |  |
| COC(=O)c1cc(NC(=O)NC(C)c2cccc(F)c2F)ccc1C (stereo not drawn) [Compound 2, COC(=O)C=1C=C(NC(=O)NC(C)C=2C=CC=C(F)C2F)C=CC1C] | 1580 nM | 85 ± 8% |  |  |  |  |  |  |  |  |  | 75 % of Cmp 1a and 55 % of Cmp 1a and 76 % of Cmp 1a and 90 % of Cmp 1a | 64 % of Cmp 1a and 44 % of Cmp 1a and 66 % of Cmp 1a and 76 % of Cmp 1a | 50 % of Cmp 1a and 41 % of Cmp 1a and 46 % of Cmp 1a and 65 % of Cmp 1a | 34 % of Cmp 1a and 26 % of Cmp 1a and 28 % of Cmp 1a and 41 % of Cmp 1a | 18 % of Cmp 1a and 16 % of Cmp 1a and 10 % of Cmp 1a and 22 % of Cmp 1a | 8 % of Cmp 1a (2×) and 5 % of Cmp 1a and 3.81 % of Cmp 1a | 6.59 % of Cmp 1a and -1 % of Cmp 1a and 0.549 % of Cmp 1a and 2.33 % of Cmp 1a | 1.89 % of Cmp 1a and -0.926 % of Cmp 1a and 0.158 % of Cmp 1a and 0.886 % of Cmp 1a | 21.0785 % of Cmp 1a and 18.2142 % of Cmp 1a and 25.1866 % of Cmp 1a |
